Measurements published in patent US20090264415A2 (priority 2004, published 2009).
Where two headings read alike, the source gives them in different places.

Test system: peripheral blood mononuclear cells (PBMC) stimulated with allogeneic PBMC or EBV-transformed human B cells (RPMI1788)
Assay: Mixed lymphocyte reaction (MLR) assay
Type: cell-based
Conditions: Homo sapiens, RPMI-1788
Method: Pyrido[3,2-d]pyrimidine derivatives were first dissolved (10 mM) in dimethyl-sulfoxide (hereinafter referred as DMSO) and further diluted in culture medium before use for the following in vitro experiments. […] Some pyrido[3,2-d]pyrimidine derivatives described herein were tested in the following mixed lymphocyte reaction (MLR) assay.
Peripheral blood mononuclear cells (hereinafter referred as PBMC) were isolated from heparinized peripheral blood by density gradient centrifugation over Lymphoprep (Nycomed, Maorstua, Norway). Allogeneic PBMC or Eppstein-Barr Virus-transformed human B cells [commercially available under the trade name RPM11788 (ATCC name CCL156)] which strongly express B7-1 and B7-2 antigens were used as stimulator cells after irradiation with 30 Gy. MLR was performed in triplicate wells. After 5 days incubation at 37° C., 1 μCi [^3H]-thymidine was added to each cup. After a further 16 hours incubation, cells were harvested and counted in a β-counter. Inhibition of proliferation by a compound described in some of the present examples was counted while using the formula: [formula] wherein cpm is the thymidine count per minute. The MLR assay is regarded by those skilled in the art as an in vitro analogue of the transplant rejection since it is based on the recognition of allogeneic major histocompatibility antigens on the stimulator leukocytes, by responding lymphocytes.

[1] = MLR assay of example 319, read-out: MLR IC50
[2] = 50% suppression of the MLR, [3H]-thymidine incorporation, read-out: MLR

Row | Structure (SMILES) | IC50 [1] | IC50 [2]
1 | Cc1cccc(NC(=O)N2CCN(c3nc(N)nc4ccc(-c5c(F)cc(F)cc5F)nc34)CC2)c1 [Example 551, 2-amino-4-[(3-methylphenylcarbamoyl)-piperazin-1-yl]-6-(2,4,6-trifluoro-phenyl)-pyrido[3,2-d]pyrimidine] | 0.5 µM | 
2 | Cc1ccccc1-c1ccc2nc(N)nc(N3CCN(C(=O)COc4ccc(Cl)cc4)CC3)c2n1 [Example 512, 2-amino-4-[N-(4-chlorophenoxyacetyl)-piperazin-1-yl]-6-(2-methyl-phenyl)-pyrido(3,2-d)pyrimidine] | 0.008 µM | 
3 | Cc1cccc(NC(=O)N2CCN(c3ncnc4ccc(-c5ccc(F)cc5)nc34)CC2)c1 [Example 558, 4-[(3-methylphenylcarbamoyl)-piperazin-1-yl]-6-(4-fluorophenyl)pyrido[3,2-d]pyrimidine] | 0.039 µM | 
4 | Nc1nc(N2CCN(C(=O)COc3ccc(Cl)cc3)CC2)c2nc(-c3ccncc3)ccc2n1 [Example 407, 2-amino-4-[4-(4-chlorophenoxyacetyl)piperazin-1-yl]-6-(pyridin-4-yl)pyrido-[3,2-d]pyrimidine] | 0.005 µM | 
5 | CC(=O)Nc1ccc(-c2ccc3nc(N)nc(N4CCN(C(=O)COc5ccc(Cl)cc5)CC4)c3n2)cc1 [Example 449, 2-amino-4-[4-(4-chlorophenoxyacetyl)piperazin-1-yl]-6-[4-(acetamido)phenyl]-pyrido-[3,2-d]pyrimidine] | 0.039 µM | 
6 | Nc1nc(N2CCN(C(=O)C3CCc4ccccc4O3)CC2)c2nc(-c3ccc(F)cc3)ccc2n1 (stereo not drawn) [Example 524, [4-(2-amino-6-(4-fluorophenyl)pyrido[3,2-d]pyrimidin-4-yl)piperazin-1-yl]chroman-2-ylmethanone] | 0.225 µM | 
7 | COc1cc(-c2ccc3nc(N)nc(N4CCN(C(=O)COc5ccc(Cl)cc5)CC4)c3n2)ccc1O [Example 496, 2-amino-4-[N-(4-chlorophenoxyacetyl)-piperazin-1-yl]-6-(3-methoxy-4-hydroxyphenyl)-pyrido(3,2-d)pyrimidine] | 0.071 µM | 
8 | Nc1nc(N2CCN(C(=O)Nc3ccc(Cl)cc3)CC2)c2nc(-c3ccc(F)cc3)ccc2n1 [Example 455, 2-amino-4-[4-[N-(4-chlorophenyl)carbamoyl]-piperazin-1-yl]-6-(4-fluorophenyl)-pyrido[3,2-d]pyrimidine] | 0.07 µM | 
9 | COc1ccc(-c2ccc3nc(N)nc(N4CCN(C(=O)COc5ccc(Cl)cc5)CC4)c3n2)cn1 [Example 410, 2-amino-4-[4-(4-chlorophenoxyacetyl)piperazin-1-yl]-6-(2-methoxypyridin-5-yl)pyrido-[3,2-d]pyrimidine] | 0.009 µM | 
10 | Nc1nc(N2CCN(C(=O)COc3ccc(Cl)cc3)CC2)c2nc(-c3ccoc3)ccc2n1 [Example 402, 2-amino-4-[4-(4-chlorophenoxyacetyl)piperazin-1-yl]-6-(furan-3-yl)pyrido-[3,2-d]pyrimidine] | 0.03 µM | 
11 | Nc1nc(N2C[C@@H]3C[C@H]2CN3C(=O)COc2ccc(Cl)cc2)c2nc(-c3ccc(F)cc3)ccc2n1 [Example 484, (S,S)-1-{5-[2-amino-6-(4-fluorophenyl)-pyrido[3,2-d]pyrimidin-4-yl]-2,5-diaza-bicyclo[2.2.1]hept-2-yl}-2-(4-chlorophenoxy)-ethanone] | 2.6 µM | 
12 | Nc1nc(N2CCN(C(=O)c3ccco3)CC2)c2nc(-c3ccc4c(c3)OCCO4)ccc2n1 [Example 203, 2-amino-4-[N-(2-furoyl)-piperazin-1-yl]-6-(1,4-benzo-dioxane)-pyrido[3,2-d]pyrimidine] |  | 5.7 µM
13 | Nc1nc(N2CCN(C(=O)C(N)Cc3ccc(Cl)cc3)CC2)c2nc(-c3ccc(F)cc3)ccc2n1 (stereo in doubt) [Example 488, (S)-2-amino-4-{4-[3-(4-chlorophenyl)-2-aminopropionyl]piperazin-1-yl}-6-(4-fluorophenyl)-pyrido[3,2-d]pyrimidine] | 4.3 µM | 
14 | Nc1nc(N2CCN(C(=O)COc3ccc(Cl)cc3)CC2)c2nc(Cl)ccc2n1 [Example 492, 2-amino-4-(N-(4-chlorophenoxyacetyl)-piperazin-1-yl)-6-chloro-pyrido[3,2-d]pyrimidine] | 0.08 µM | 
15 | COc1cc(-c2ccc3nc(N)nc(N)c3n2)ccc1O [Example 93, 2,4-diamino-6-(4-hydroxy-3-methoxyphenyl)-pyrido[3,2-d]pyrimidine] |  | 5.1 µM
16 | Nc1nc(N2CCN(C(=O)NCc3ccc(Cl)cc3)CC2)c2nc(-c3ccc(F)cc3)ccc2n1 [Example 189, 2-amino-4-[(N-4-chloro-benzylcarbamoyl)-piperazin-1-yl]-6-(4-fluorophenyl)-pyrido[3,2-d]pyrimidine] |  | 0.5 µM
17 | Nc1nc(N2CCN(C(=O)N3CCOCC3)CC2)c2nc(-c3ccc(F)cc3)ccc2n1 [Example 466, 2-amino-4-[4-(morpholinocarbonyl)piperazin-1-yl]-6-(4-fluorophenyl)-pyrido[3,2-d]pyrimidine] | 2.5 µM | 

Row | Structure (SMILES) | IC50 [1] | IC50 [2]
18 | C=CC(=O)N1CCN(c2nc(N)nc3ccc(-c4ccc(OC)c(OC)c4)nc23)CC1 [Example 393, 2-amino-4-[4-(2-propenoyl)piperazin-1-yl]-6-(3,4-dimethoxyphenyl)-pyrido[3,2-d]pyrimidine] | 0.4 µM | 
19 | Nc1nc(N2CCN(C(=O)COc3ccc(Cl)cc3)CC2)c2nc(-c3cc(Cl)ccc3F)ccc2n1 [Example 431, 2-amino-4-[4-(4-chlorophenoxyacetyl)piperazin-1-yl]-6-(5-chloro-2-fluorophenyl)-pyrido-[3,2-d]pyrimidine] | 0.33 µM | 
20 | Nc1nc(NC2CCN(C(=O)COc3ccc(Cl)cc3)CC2)c2nc(-c3ccc(F)cc3)ccc2n1 [Example 480, 2-amino-4-[1-(4-chlorophenoxyacetyl)piperid-4-ylamino]-6-(4-fluorophenyl)-pyrido[3,2-d]pyrimidine] | 2.2 µM | 
21 | Nc1nc(N2CCN(C(=O)COc3ccc(Cl)cc3)CC2)c2nc(-c3ccc(C(=O)NC4CC4)cc3)ccc2n1 [Example 448, 2-amino-4-[4-(4-chlorophenoxyacetyl)piperazin-1-yl]-6-[4-(cyclopropylaminocarbonyl)phenyl]-pyrido-[3,2-d]pyrimidine] | 0.015 µM | 
22 | CS(=O)(=O)Nc1cccc(-c2ccc3nc(N)nc(N4CCN(C(=O)COc5ccc(Cl)cc5)CC4)c3n2)c1 [Example 435, 2-amino-4-[4-(4-chlorophenoxyacetyl)piperazin-1-yl]-6-[N-3-(methanesulfonamidophenyl)]-pyrido-[3,2-d]pyrimidine] | 0.006 µM | 
23 | Nc1nc(N2CCOCC2)c2nc(-c3ccc(F)cc3)ccc2n1 [Example 245, 2-amino-4-morpholino-6-(4-fluorophenyl)-pyrido[3,2-d]pyrimidine] |  | 2.3 µM
24 | CC(=O)Oc1ccc(-c2ccc3nc(N)nc(N4CCN(C(=O)COc5ccc(Cl)cc5)CC4)c3n2)cc1 [Example 504, 2-amino-4-[N-(4-chlorophenoxyacetyl)-piperazin-1-yl]-6-(4-acetoxy-phenyl)-pyrido(3,2-d)pyrimidine] | 0.05 µM | 
25 | C[C@H]1CN(C(=O)OCc2ccccc2)CCN1c1nc(N)nc2ccc(-c3ccc(F)cc3)nc12 [Example 486, (S)-4-[2-amino-6-(4-fluorophenyl)-pyrido[3,2-d]pyrimidin-4-yl]-3-methylpiperazine-1-carboxylic acid benzyl ester] | 0.8 µM | 
26 | CC(Cl)C(=O)N1CCN(c2nc(N)nc3ccc(-c4ccc(F)cc4)nc23)CC1 (stereo not drawn) [Example 468, 2-amino-4-[4-(2-chloropropionyl)piperazin-1-yl]-6-(4-fluorophenyl)-pyrido[3,2-d]pyrimidine] | 3.2 µM | 
27 | Nc1nc(N2CCN(C(=O)COc3ccc(Cl)cc3)CC2)c2nc(-c3cccc(Cl)c3)ccc2n1 [Example 406, 2-amino-4-[4-(4-chlorophenoxyacetyl)piperazin-1-yl]-6-(3-chlorophenyl)pyrido-[3,2-d]pyrimidine] | 0.07 µM | 
28 | Cc1cccc(NC(=O)N2CCN(c3ncnc4ccc(-c5cccc(C#N)c5)nc34)CC2)c1 [Example 554, 4-[(3-methylphenylcarbamoyl)-piperazin-1-yl]-6-(3-cyanophenyl)pyrido[3,2-d]pyrimidine] | 0.037 µM | 
29 | CC(C)(C)OC(=O)N1CCN(c2nc(N3CCCC3)nc3ccc(-c4ccc(F)cc4)nc23)CC1 [Example 567, 6-(4-fluorophenyl)-4-(4-Boc-piperazino)-2-pyrrolidino-pyrido[3,2-d]pyrimidine] | > 10 µM | 
30 | Cc1cccc(NC(=O)N2CCN(c3ncnc4ccc(-c5ccccc5C#N)nc34)CC2)c1 [Example 557, 4-[(3-methylphenylcarbamoyl)-piperazin-1-yl]-6-(2-cyanophenyl)pyrido[3,2-d]pyrimidine] | 0.03 µM | 
31 | Nc1nc(N2CCN(C(=O)COc3ccc(Cl)cc3)CC2)c2nc(-c3ccc(C(F)(F)F)cc3)ccc2n1 [Example 399, 2-amino-4-[4-(4-chlorophenoxyacetyl)piperazin-1-yl]-6-(4-trifluoromethylphenyl)-pyrido[3,2-d]pyrimidine] | 0.5 µM | 
32 | CC(C)(C)OC(=O)N1CCN(c2nc(NC3CCCC3)nc3ccc(-c4ccc(F)cc4)nc23)CC1 [Example 568, 2-cyclopentylamino-6-(4-fluorophenyl)-4-(4-Boc-piperazino)-pyrido[3,2-d]pyrimidine] | 6.5 µM | 
33 | N#CCOc1ccc(-c2ccc3nc(N)nc(N4CCN(C(=O)COc5ccc(Cl)cc5)CC4)c3n2)cc1 [Example 503, 2-amino-4-[N-(4-chlorophenoxyacetyl)-piperazin-1-yl]-6-(4-cyano-methoxyphenyl)-pyrido(3,2-d)pyrimidine] | 0.02 µM | 
